Here are results for two molecules from PubChem BioAssay AID651584 (Broad Institute, 2012).

Assay [1] deals with MALME3 melanoma viability, CellTiter-Glo ATP luminescence, 24 h. Description: growth inhibition of MALME3 cells – cell-based, CellTiter-Glo luminescence, dry powder, set 5, orthogonal assay for MITF inhibitor project, dose response (AID 651584).
Test in assay [2]: as above
The following applies: MALME3 melanoma viability, CellTiter-Glo ATP luminescence, 24 h; at 35 µM (top of the series). A general note: In ATP-based viability assays light output follows the ATP content of the culture.

The structures appear in SMILES notation. Where “and” joins values, the source holds several entries; their conditions need not be identical. Identical values can stand only once. Calls of active or inactive are those of the source.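 The calls were made as follows: active = viability loss whose fitted half-maximal potency is at most twice the top valid dose for that sample; inconclusive = flat curve with 30 to 70% viability loss, or poor fit; inactive = the rest.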

Usually AC50 stands for the concentration at which the activity in the assay is half-maximal. For the molecule `O=C1C=C(Nc2ccccc2)C(=O)c2ccccc21`, the AC50 in assay [1] is 5.86 µM and 28.4 µM.

On to `NC1=C(NS(=O)(=O)c2ccc(Br)s2)C(=O)c2ccccc2C1=O`, for which the activity change, negative = viability loss in assay [2] was -3.99% (inactive).
